ChEMBL document CHEMBL1158942, “Novel meroterpenoids from Cystoseira mediterranea: use of the crown-gall bioassay as a primary screen for lipophilic antineoplastic agents” (1991)

What follows are molecules tested on Agrobacterium tumefaciens (assay: Antitumor activity against Agrobacterium tumefaciens B6-induced crown gall tumor in potato tubers at 10000 uM after 15 to 20 days by crown gall tumor potato disk test).
Type: functional
`Cc1cc(O)cc2c1OC(C)(CC1=C3C[C@@H](O)C(C)(C)OC1C(C)(C)CCCC3=O)CC2` (stereo partly drawn) [CYSTOSEIROL] gave an inhibition at 10000 µM of 73%. In the case of `C/C(=C\Cc1cc(O)cc(C)c1O)CC(=O)C[C@@]1(C)CC2C(O)=CC(O)=C[C@]1(C)C2(C)C` [MEDITERRANEOL A], the inhibition at 10000 µM is reported as 88%. `COc1cc(C)c(O)c(C/C=C(\C)CC(=O)CCCC(=O)C=C(C)C)c1` [MEDITERRANENONE] showed an inhibition at 10000 µM of 76%.
